Experimental data from patent publication EP0888346B1, “CORALYNE ANALOGS AS TOPOISOMERASE INHIBITORS” (RUTGERS, THE STATE UNIVERSITY OF NEW JERSEY, priority 1996, dated 1997).
Read-outs that look alike come from different tables or passages of the source.

Legend:
[1] = test system: calf thymus topoisomerase II; experiment: Topo II cleavage assay (plasmid YEpG DNA); format: biochemical; details: concentration relative to VM-26 = 1 producing the same cleavage on the plasmid DNA
Description: The plasmid pET11a and the E. coli strain BL21(DE3) used for enzyme expression were purchased from Novagen. IPTG was purchased from Sigma. The ECL system used for the Western blotting analysis of bacterial lysates was from Amersham (UK). All the restriction enzymes and Vent polymerase were from New England Biolabs. Mammalian topoisomerase II was isolated from calf thymus glands according to the published procedure (Halligan et al., J. Biol. Chem. 260:2475-2482 (1985)). The single copy yeast plasmids YCpGAL1 expressing various topoisomerase I genes in JN2-134 yeast strain were a kind gift of Dr. M-A. Bjornsti (Thomas Jefferson University, Philadelphia, PA). All bacterial and yeast media were from Difco (Detroit, MI), while cell culture media were purchased from Gibco-BRL (Gaithersburg, MD).
(§1) Cleavage assays for the recombinant topoisomerases I and calf thymus topoisomerases I and II were done as described (Liu et al., J. Biol. Chem. 258:15365-15370 (1983)). The plasmid YEpG DNA used for the cleavage assays was prepared and labeled at its 3'-end using the published procedures.

[2] = test system: Human lymphoblast RPMI 8402 cells; experiment: MTT-microtiter plate tetrazolinium cytotoxicity assay (MTA); format: cell-based
Description: The results were plotted and the IC50 then measured.

[3] = test system: camptothecin-resistant CPT-K5 cells; experiment: MTT-microtiter plate tetrazolinium cytotoxicity assay (MTA), camptothecin-resistant cells
Protocol: The IC50 of the drugs tested were determined by the MTT-microtiter plate tetrazolinium cytotoxicity assay (MTA) (Mosmann, T., J. Immunol. Methods 65:55-63 (1983); Denizot et al., J. Immunol. Methods 89:271-277 (1986)). Human lymphoblast RPMI 8402 cells and their camptothecin-resistant CPT-K5 cells (Andoh et al., Proc. Natl. Acad. Sci., USA 84:5565-5569 (1987)) were kindly provided by Dr. Toshiwo Andoh (Aichi Cancer Center Research Institute, Nagoya, Japan). […] Cells (2000 cells/well, seeded in […] growth medium) were grown in suspension at 37°C in 5% CO2 and maintained by regular passage in RPMI medium supplemented with 10% heat inactivated fetal bovine serum, L-glutamine (2 mM), penicillin (100 U/ml), and streptomycin (0.1 mg/ml). The cells were exposed continuously for 4 days to different drug concentrations, and assayed at the end of the fourth day. Each concentration and the no drug control were repeated at least twice in 6 replica wells. The results were plotted and the IC50 then measured. The drug sensitive human epidermoid carcinoma KB 3-1 cell line and its vinblastine-selected multidrug-resistant variant KB-V1 cells (Akiyama et al., Genetics 11:117-126 (1985)) were kindly provided by Dr. Michael Gottesmann (National Cancer Institute). They were grown as monolayer cultures at 37°C in 5% CO2 and maintained by regular passage in Dulbecco's minimal essential medium supplemented with 10% heat inactivated fetal bovine serum. KB-V1 cells were maintained in the presence of […] vinblastine.

human topoisomerase I = biological target: T1, human topoisomerase I (Homo sapiens, UniProt P11387); experiment: Topo I cleavage assay (plasmid YEpG DNA); format: biochemical; details: concentration relative to camptothecin (CPT) = 1 producing the same cleavage on the plasmid DNA
T1 construct: 15 amino acid vector-derived fusion (pET-11a leader); made in house; host or cells: E. coli BL21(DE3)
T1 sequence (P11387 1-765): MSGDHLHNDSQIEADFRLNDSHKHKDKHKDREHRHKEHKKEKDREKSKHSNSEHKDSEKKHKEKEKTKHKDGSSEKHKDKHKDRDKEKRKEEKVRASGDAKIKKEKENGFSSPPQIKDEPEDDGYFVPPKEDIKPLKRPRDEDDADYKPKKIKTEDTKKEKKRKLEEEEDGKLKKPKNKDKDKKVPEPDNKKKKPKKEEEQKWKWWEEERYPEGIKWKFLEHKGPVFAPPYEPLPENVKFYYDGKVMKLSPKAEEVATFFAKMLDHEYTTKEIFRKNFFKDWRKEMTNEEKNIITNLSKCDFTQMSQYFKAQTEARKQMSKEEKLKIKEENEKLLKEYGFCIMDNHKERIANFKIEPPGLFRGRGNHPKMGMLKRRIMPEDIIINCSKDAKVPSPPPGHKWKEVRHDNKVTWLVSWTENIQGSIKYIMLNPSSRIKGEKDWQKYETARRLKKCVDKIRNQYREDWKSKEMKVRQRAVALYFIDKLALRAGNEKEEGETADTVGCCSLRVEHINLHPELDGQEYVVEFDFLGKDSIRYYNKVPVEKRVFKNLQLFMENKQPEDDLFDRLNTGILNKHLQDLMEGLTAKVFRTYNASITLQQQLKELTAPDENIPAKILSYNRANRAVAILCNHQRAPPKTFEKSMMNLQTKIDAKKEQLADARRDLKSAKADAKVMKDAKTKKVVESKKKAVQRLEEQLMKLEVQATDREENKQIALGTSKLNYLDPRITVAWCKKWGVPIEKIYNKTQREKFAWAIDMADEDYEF
Description: To obtain large quantity of human topoisomerase I, the human topoisomerase I cDNA was cloned into the pET-11a vector, in which transcription of the cDNA is under the control of the inducible T7 promoter (Studier et al., Methods in Enzymol., Vol. 185:60-89, San Diego: Academic Press (1990)). Briefly, a 3.4 kb DNA fragment containing the entire coding sequence of human topoisomerase I and approximately 1 kb of untranslated region downstream of the stop codon was isolated from the plasmid YCpGAL1-hTOP1 (Bjornsti et al., Cancer Res. 49:6318-6323 (1989)) by cutting at the BamHI and EcoRI sites. The vector pET-11a was cut with the same restriction enzymes, dephosphorylated and ligated to the insert in the proper reading-frame downstream of the vector cloning site. The ligation mixture was used to transform E. coli, the correct clone pET1B was isolated (see figure 2A for the map) and its identity confirmed by restriction mapping. Since the translational start in pET is positioned at an upstream NdeI site, the expressed topoisomerase I has a 15 amino acid fusion at its N-terminus. pET1B was then transformed into E. coli BL21(DE3), and, upon induction with 0.4 mM IPTG for 1 hour, the bacterial lysate was analyzed by 10 % SDS-PAGE. Expression was confirmed by Western blotting using rabbit antibodies against human topoisomerase I. Isolation of the expressed protein was done by a simple procedure. Briefly, E. coli cells were lysed by repeated sonic bursts. The sonic extract was made in 1 M NaCl and 6% polyethylene glycol (PEG) to remove nucleic acids. The PEG supernatant was chromatographed directly on a hydroxyapatite column. Expressed human DNA topoisomerase I was eluted at the 0.6 M potassium phosphate step. The eluted enzyme was dialyzed against 50% glycerol, 30 mM potassium phosphate (pH 7.0), 1 mM dithiothreitol (DTT) and 0.1 mM EDTA and stored at -20°C.
as §1

[4] = Homo sapiens, RPMI 8402, 96 h, read-out: Cytotoxicity IC50 RPMI
[5] = Homo sapiens, CPT-K5, 96 h, read-out: Cytotoxicity IC50 CPT-K5

Molecule	Topo II-mediated DNA cleavage (REC, Relative Effective Concentration) [1]	cytotoxicity against RPMI 8402 cells (in words) [2]	IC50 [2, 4] [µM]	IC50 [3, 5] [µM]	Topo I-mediated DNA cleavage (REC, Relative Effective Concentration) (human topoisomerase I)	IC50 ([2]; rpmi 8402 cells, 96 h) [µM]	IC50 ([3]; cpt-k5 cells, 96 h) [µM]	IC50 ([2]; Homo sapiens, RPMI 8402, 96 h, 4 days of continuous drug exposure, read-out: Cytotoxicity IC50 RPMI) [µM]
COc1ccc(Cc2nccc3c4c(ccc23)OCO4)cc1OC [Compound 9c, 5,6-Methylenedioxy-1-(3,4-dimethoxybenzyl)isoquinoline]	>1000	appreciable cytotoxicity	9.3	15	>1000	–	–	–
6,7-Dihydroxy-1,2-dimethyl-3-(3, 4-dihydroxyphenyl)isoquinolinium methosulfate [Compound 15]	>1000	appreciable cytotoxicity	–	–	1000	7.3	> 122	–
COc1ccc(Cc2nccc3cc(OC)c(OC)cc23)cc1OC [Compound 9a]	1000	–	–	29	>1000	–	–	24
COc1cc2cc3c4ccc5c(c4cc[n+]3c(C)c2cc1OC)OCO5 [Compound 2c, 8-Methyl-3,4-methylenedioxy-10,11-dimethoxydibenzo[a,g]quinolizinium acetosulfate]	10	–	2	41	10	–	–	–
COc1cc2c(cc1OC)-c1cc3cc(OC)c(OC)cc3c(C)[n+]1CC2 [Compound 7a, 5,6-Dihydro-8-methyl-2,3,10,11-tetramethoxydibenzo[a,g]quinolizinium acetosulfate]	>1000	–	5.9	> 20	5	–	–	–
COc1cc([C@@H]2c3cc4c(cc3[C@@H](O[C@@H]3O[C@@H]5CO[C@@H](c6cccs6)O[C@H]5[C@H](O)[C@H]3O)[C@H]3COC(=O)[C@H]23)OCO4)cc(OC)c1O [VM-26, reference compound]	1	–	0.3	0.5	>1000	–	–	–
8-Methyl-2,3,10,11-Tetramethoxydibenzo[a,g]quinolizinium acetosulfate [Compound 2a]	>1000	–	–	–	10	4.9	20	–
8-Methyl-3,4,10,11-tetramethoxydibenzo[a,g]quinolizinium acetosulfate [Compound 2b]	100	–	–	–	>1000	0.4	2	–
COc1cc2cc3c4cc(OC)c(OC)cc4cc[n+]3cc2cc1OC.[Cl-] [Compound 10a, 2,3,10,11-Tetramethoxydibenzo[a,g]quinolizinium chloride]	10	–	13	> 32	1000	–	–	–
COc1cc2c(cc1OC)-c1cc3cc(OC)c(OC)cc3c[n+]1CC2.[Cl-] [Compound 8a, 5,6-Dihydro-2,3,10,11-tetramethoxydibenzo[a,g]quinolizinium chloride]	>1000	–	10	18	20	–	–	–
COc1cc2cc3c4ccc5c(c4cc[n+]3cc2cc1OC)OCO5.[Cl-] [Compound 10c, 3,4-Methylenedioxy-10,11-dimethoxydibenzo[a,g]quinolizinium chloride]	2	–	0.8	6.8	10	–	–	–
COc1ccc(Cc2nccc3c(OC)c(OC)ccc23)cc1OC.Cl [Compound 9b, 5,6-Dimethoxy-1-(3,4-dimethoxybenzyl)isoquinoline hydrochloride]	1000	–	15	15	>1000	–	–	–
COc1cc2cc3[n+](c(C)c2cc1OC)CCc1c-3ccc(OC)c1OC [Compound 7b, 5,6-Dihydro-8-methyl-3,4,10,11-tetramethoxydibenzo[a,g]quinolizinium acetosulfate]	1000	–	6.9	14	1000	–	–	–
COc1ccc(-c2cc3cc(OC)c(OC)cc3c(C)n2)cc1OC [Compound 12a, 6,7-Dimethoxy-1-methyl-3-(3,4-dimethoxyphenyl)isoquinoline]	–	–	13	24	>1000	–	–	–
COc1cc2cc3[n+](cc2cc1OC)CCc1c-3ccc(OC)c1OC.[Cl-] [Compound 8b, 5,6-Dihydro-3,4,10,11-tetramethoxydibenzo[a,g]quinolizinium chloride]	1000	–	9	6.4	>1000	–	–	–
COc1cc2cc(-c3ccc4c(c3)OCO4)nc(C)c2cc1OC [Compound 12b, 6,7-Dimethoxy-1-methyl-3-(3,4-methylenedioxyphenyl)isoquinoline]	>1000	–	22	31	1000	–	–	–
